# Several values for one entry are separate records, joined by “and”; a condition that tells them apart may be missing. Equal entries are not always repeated.
# Experiments:
# [1] = test system: platelet-rich plasma (PRP); assay: Platelet-aggregation-inducing effects in platelet-rich plasma, absorbance 630 nm; assay type: cell-based; conditions: 7 minutes, human PRP
# Description: Blood necessary to generate PRP was obtained from 4 healthy human volunteers. 100 ml of fresh venous blood from each donor was isolated directly into tubes containing 1/10th volume of the anti-coagulant Tri-Sodium Citrate (3.2% w/v). The blood and anti-coagulant were immediately mixed and the final concentration of Tri-Sodium Citrate was 0.0106 M.
# PRP was prepared by centrifugation of anti-coagulated blood at 180 g for 10 minutes at room temperature. The cloudy yellow supernatant containing the platelets was removed and placed into a clean polypropylene tube. Platelet-poor plasma (PPP) was prepared by centrifuging the remaining sample at 1,200 g for 20 minutes at room temperature. The PRP was adjusted to a suitable platelet count and absorbance at 630 nm by addition of PPP.
# All three compounds were dissolved in 100% DMSO to give a stock concentration of 60 mM. […] […] 100 nM gamma thrombin (Cambridge bioscience) was used as control for platelet aggregation. 90 μl aliquots of PRP were added to 96 wells plates. A baseline absorbance reading was taken at 630 nm. 5 μl of the compounds and gamma thrombin control was added to the appropriate PRP.
# The plates were incubated at room temperature for 7 minutes on a plate shaker with continuous shaking. A second A630 nm reading was made after the 7 minutes incubation to measure any platelet aggregation induced by the compounds.
# [2] = cited from earlier work
# MDA-MB-231 Dlux = assay: Orthotopic spontaneous metastasis breast model, whole body bioluminescence; assay type: in vivo, female MF-1 nude mice; conditions: for total flux, whole body bioluminescence: mono-Sulfestrol 60 mg/kg, di-Sulfestrol 80 mg/kg orally once a day
# Description: Female MF-1 nude mice (HsdOla:MF1-Foxn1nu, Harlan, UK) were divided into 3 groups of each 8 mice (n=8):
# The mice were 5-6 weeks old at the start of the study and were maintained in sterile isolators within a barriered unit illuminated by fluorescent lights set to give a 12 hour light-dark cycle (on 07.00, off 19.00). The room was air-conditioned to maintain an air temperature range of 23±2° C. Sterile irradiated 2019 rodent diet (Harlan Teklad UK, product code Q219DJ1R2) and autoclaved water were offered ad libitum.
# The MDA-MB-231 Dlux cells were maintained in vitro in RPMI containing 2 mM L-Glut and (Life Technologies, UK) and 10% (v/v) heat-inactivated foetal bovine serum (Sigma, Poole, UK) at 37° C. in 5% CO2 and humidified conditions. Cells were treated with Zeocin once a week at 0.4 mg/mL.
# On the day of initiation cells were harvested from semi-confluent monolayers with 0.05% Trypsin-EDTA, washed twice in the culture medium and counted. Cells with viability of >90% were re-suspended, for in vivo administration, in 1:1 PBS:Matrigel at 2×10^6 cells/0.1 mL. Prior to injection, the cell suspension was homogenized and 0.1 mL of cell suspension was drawn into a 1 mL syringe. The cell suspension was then injected orthotopically into the lower left-side 2nd mammary fat pad of each mouse under anaesthesia (Medetomidine/Ketamine).
# On day 7 after initiation and every six days thereafter, the mice were injected (s.c.) with 150 mg/kg D-Luciferin. 10 minutes following administration of D-Luciferin mice were anaesthetised and 15 minutes after administration they were placed into an imaging chamber (Spectrum CT) and imaged for luminescence (ventral view; whole body and shielding of the primary tumor). Images were captured and processed by Living Image 4.3.1 software (Caliper LS, US.).
# On day 7 after initiation mice were assigned to groups such that there was a uniform mean bioluminescent signal between the groups.
# [3] = Estrogenic activity: body weight and plasma cholesterol levels; assay type: in vivo, male Sprague-Dawley rats; conditions: for Mean bodyweight: in g (unit assumed)
# Description: Estrogenic activity was determined by measuring body weight and plasma cholesterol levels.
# Each animal was dosed three times a day with vehicle or test compound (1st dose 7:30-8:00, 2nd dose 12:30-13:00, 3rd dose 17:00-17:30) for 14 consecutive days.
# After 14 days treatment, blood was collected from the animals via cardiac puncture 4 hrs past final dosing to analyze plasma cholesterol levels. The blood was immediately transferred to a tube containing 0.5M EDTA anticoagulant. It was mixed gently and centrifuged at 1000×g at 4° C. for 15 min. Plasma was aspirated from the centrifuged blood samples, quick frozen on dry ice and stored at −80° C. for later use.
# Plasma cholesterol levels were determined using a commercial ELISA kit obtained from NovaTeinBio (BG-RAT11262). Standard protocol accompanied by the kit was used without any adjustments.
# [4] = Concentration of Mono-Sulfestrol in pooled plasma samples, LC-UV quantification; assay type: in vivo, male Sprague Dawley rats; conditions: 10 mg/kg of the labelled compound, rat, pooled 0.5-8 hrs
# Description: The concentration of Mono-Sulfestrol in the pooled samples described in Example 6 was quantified by LC-UV quantification.
# A calibration standard solution was prepared as 10,000 ng/mL by adding an appropriate amount of Mono-Sulfestrol into 20% acetonitrile/0.1% formic acid in water. The peak area of the standard solution and the sample were measured with the wavelength set at 200 to 360 nm. The concentration levels of Mono-Sulfestrol were estimated using peak area (Area) of the standard and unknown samples and concentration of the standard (Concstd) by the following equation:
# Areaunknown/Areastd=Concunknown/Concstd
# Concunknown=Concstd·(Areaunknown/Areastd)
# [5] = Metabolites in plasma after oral and intravenous administration, LC-MS/MS; conditions: 10 mg/kg oral and intravenous
# Description: Metabolites were identified after oral and intravenous administration of the compounds.
# Each group consisted of three rats, giving a total of 12 animals. Compounds were dosed at 10 mg/kg for both oral and intravenous administration. A 0.9% saline solution was used as vehicle for oral and intravenous administration.
# Prior to intravenous administration, the solution was filtered through a 0.22 μM filter. Oral dosing was performed using a oral gavage. Tail vein injection was used for intravenous administration.
# At 0.5, 1, 2, 4, 6 and 8 hrs post administration, 0.25 ml blood was drawn from the animals and immediately transferred to prechilled microcentrifuge tubes containing 4 μl of K2-EDTA to prevent coagulation. Plasma was obtained by centrifugation of the plasma and stored at −70° C. until analysis. Plasma drawn from each individual rat was pooled according to the following schedule:
# The pooled samples were analyzed using LC-MS/MS and the relative percentage of each metabolite in the pooled sample was measured on the basis of the mass spectrometric peak areas of the parent and its metabolites in the plasma.
# [6] = In vitro metabolism in human liver microsomes (STS and CYP); assay type: in vitro ADME; parameters: Clint: unit not given here
# Description: In vitro metabolism pathways of DES, Mono-Sulfestrol and Di-Sulfestrol in human liver microsomes were investigated.
# Special emphasis was put on desulfatation by steroid sulfatase (STS) and oxidation by cytochrome P (CYP) metabolism. Liver microsomes (Celsis in vitro Technologies) were used at a concentration of 0.5 mg/ml in a volume of 600 μl phosphate buffer pH 7.4. Estrone-3-sulfate was used as positive control.
# 5 μM of each compound (test and control compound) was added to the liver microsomes and the mixture was incubated at 37° C. for 5, 10, 20, 30, 50, 90 and 120 minutes. After incubation, aliquots of 45 μl were taken which were subsequently quenched with 150 μl ice cold methanol. Aliquots were incubated ≧1 h at −20° C. for protein precipitation. After precipitation, samples were centrifuged and remaining supernatant was used for analysis with LC-MS/MS. Half life of the compounds, speed of metabolism or intrinsic clearance (Clint), and contribution to metabolism of CYP and STS metabolism were calculated based on the data obtained at each time point.
# [7] = cited from earlier work; remark: listed apart in the source
# [8] = orally administered, daily doses of 2 mg; cited from earlier work
# [9] = nothing added (STS active, CYP inactive), 5 μM
substance,measurement,setting,value
"4,4′-(hex-3-ene-3,4-diyl)bis(4,1-phenylene) disulfate [Di-Sulfestrol]",Absorbance (630 nm),"[1]; 2.3 μM, high absorbance = low aggregation",0.260 ± 0.030
same,Absorbance (630 nm),[1]; 4.7 μM,0.253 ± 0.024
same,Absorbance (630 nm),[1]; 9.4 μM,0.266 ± 0.039
same,Absorbance (630 nm),[1]; 18.75 μM,0.254 ± 0.025
same,Absorbance (630 nm),[1]; 37.5 μM,0.260 ± 0.027
same,Absorbance (630 nm),[1]; 75 μM,0.264 ± 0.031
same,Absorbance (630 nm),[1]; 150 μM,0.266 ± 0.034
same,water solubility (in words),[2],water soluble
same,"total flux, whole body bioluminescence",MDA-MB-231 Dlux; Day 7 (before start of treatment),1.73 10^9 photons/second
same,"total flux, whole body bioluminescence",MDA-MB-231 Dlux; Day 13,8.84 10^9 photons/second
same,"total flux, whole body bioluminescence",MDA-MB-231 Dlux; Day 19,16.2 10^9 photons/second
same,effect on tumor progression (in words),"MDA-MB-231 Dlux; oral, MDA-MB-231 Dlux in mice",tumor progression inhibiting effect
same,Mean bodyweight,"[3]; Day 0, DES 1.5 mg/kg per day, Di-Sulfestrol 3 mg/kg per day, three doses a day",387 ± 6.9
same,Mean bodyweight,[3]; Day 2,381 ± 8.3
same,Mean bodyweight,[3]; Day 4,368 ± 9.5
same,Mean bodyweight,[3]; Day 6,357 ± 9.2
same,Mean bodyweight,[3]; Day 8,348 ± 8.5
same,Mean bodyweight,[3]; Day 10,344 ± 7.2
same,Mean bodyweight,[3]; Day 12,341 ± 7.5
same,Mean bodyweight,[3]; Day 14,333 ± 6.67
same,Cholesterol (plasma),"[3]; after 14 days treatment, 4 hrs past final dosing, DES 1.5 mg/kg per day, Di-Sulfestrol 3 mg/kg per day",12.1 ± 0.799 nmol/L
same,estrogenic activity in rats (in words),[3]; lowering body weight and cholesterol levels,show estrogenic activity
same,Mono-Sulfestrol concentration in pooled plasma sample,[4]; intravenous,735.9 ng/ml and 1.7 μM
same,Mono-Sulfestrol concentration in pooled plasma sample,[4]; oral,261.3 ng/ml and 0.6 μM
same,metabolic fate in rat plasma (in words),[5],mostly converted into Mono-Sulfestrol
same,metabolism pathway in human liver microsomes (in words),[6],only metabolized by STS enzymes
same,Clint,[6]; [9],31
same,Contribution to metabolism,[6]; [9],85%
same,Half-life,[6]; [9],45 min
same,tolerance (in words),"[7]; mice, intravenously injectable",well tolerated in mice
same,estrogenic activity (in words),"[7]; mouse, in vivo",has estrogenic activity
stilbestrol sulfate,estrogenic activity relative to stilbestrol,[8],44%

# Source: US20170246137A1, “SULFESTROL FOR TREATING CANCER” (CHAMAELEO PHARMA BVBA, priority 2012, published 2017)
